Data on one compound can be found in ChEMBL document CHEMBL5331090, “Modes of action insights from the crystallographic structures of retinoic acid receptor-related orphan receptor-γt (RORγt)” (Eur J Med Chem, 2023).

A short description of assay [1]: Antagonist activity at RORgammat LBD (unknown origin)/NCoR2 (unknown origin) interaction. More on the design: species or system Homo sapiens.
Assay [2] deals with T1, Nuclear receptor ROR-gamma (Homo sapiens, UniProt P51449).
T1 sequence (P51449 whole entry): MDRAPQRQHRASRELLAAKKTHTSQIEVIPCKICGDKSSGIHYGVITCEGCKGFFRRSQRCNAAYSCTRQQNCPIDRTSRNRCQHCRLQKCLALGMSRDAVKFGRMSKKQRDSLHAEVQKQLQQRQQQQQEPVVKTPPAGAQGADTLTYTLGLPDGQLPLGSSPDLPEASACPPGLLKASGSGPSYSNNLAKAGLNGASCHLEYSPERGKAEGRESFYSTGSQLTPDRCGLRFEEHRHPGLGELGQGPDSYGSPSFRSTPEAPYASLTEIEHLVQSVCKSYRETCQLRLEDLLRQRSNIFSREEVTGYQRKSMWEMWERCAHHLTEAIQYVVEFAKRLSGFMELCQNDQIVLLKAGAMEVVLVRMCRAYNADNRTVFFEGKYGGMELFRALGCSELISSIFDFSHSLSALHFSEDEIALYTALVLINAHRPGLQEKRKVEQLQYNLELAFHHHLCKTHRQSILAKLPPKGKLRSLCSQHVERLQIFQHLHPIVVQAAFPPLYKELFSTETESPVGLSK
Briefly: Antagonist activity at RORgammat LBD (unknown origin) LBD.

What is called IC50 is the concentration that gives 50% inhibition. Lower therefore signals inhibition by little substance.

Turning to `C[C@H]1O[C@@H](O[C@H]2[C@@H](O)C[C@H](O[C@H]3[C@@H](O)C[C@H](O[C@H]4CC[C@@]5(C)[C@H](CC[C@@H]6[C@@H]5C[C@@H](O)[C@]5(C)[C@@H](C7=CC(=O)OC7)CC[C@]65O)C4)O[C@@H]3C)O[C@@H]2C)C[C@H](O)[C@@H]1O` [DIGOXIN], the values for the IC50 in assay [1] and in assay [2] were 3.9 µM and 1800 nM, respectively.
